# Experimental data: patent US8227428B2, “Anti-infammatory macrolide” (Glaxo Group Limited, priority 2009, dated 2012)
# What was measured:
# [1] = Stability in bio-relevant media (SGF, Fasted SIF, Fed SIF) at 37° C.; type: physicochemical
# Protocol: Stability in buffer solutions pH 2 to pH 8 at 25° C., and in bio-relevant media (SGF pH 1.6, Fasted SIF pH 6.5 and Fed SIF pH 5.0) at 37° C., during 24 hours is monitored. The samples are analysed by LC/MS.
# SGF (Simulated Gastric Fluid) pH 1.6
# Fasted SIF (Simulated Intestinal Fluid) pH 6.5
# Fed SIF (Simulated Intestinal Fluid) pH 5.0
# Flow: 0.3 mL/min Column temp.: 25° C. Sample temp.: 25° C. (for stability assay in buffer solutions) • 37° C. (for stability assay in bio-relevant media) Injector volume: 3 μL (without injection program) MS Conditions: Instrument HP MS API-ES, positive ion mode Mass Range: 150-1500 Fragmentor: 100 Gain: 1.0 Treshold: 150 Step size: 0.20 Gas Temperature: 350° C. Drying Gas Flow: 13 L/min Nebulizer Pressure: 35 psig Capillary Voltage Positive 4000 V • Negative 4000 V Sample Preparation: a) For Stability Assay in Buffer Solutions
# b) For Stability Assay in Bio-Relevat Media
# b1) For SGF Media pH 1.6 Testing:
# Compounds are dissolved in SGF media pH 1.6 to give 0.2 mg/mL solution in case of compounds 1 and 2, and to give 0.1 mg/mL solution in case of compound 3. Solutions are then stored in a water bath at 37° C. and removed at the proper time point for LC/MS analysis. Before analysis, pH values of prepared sample solutions are checked and adjusted if necessary.
# b2) For Fasted SIF Media pH 6.5 Testing:
# Compounds are dissolved in Fasted SIF media pH 6.5 to give 2 mg/mL solution. Solutions are then dispatched into vials that are stored in a water bath at 37° C. and removed at the proper time point and diluted 10 times with CH3CN for LC/MS analysis. Before analysis, pH values of prepared sample solutions are checked and adjusted if necessary.
# b3) For Fed SIF Media pH 5.0 Testing:
# Compounds are dissolved in Fed SIF media pH 5.0 to give 2 mg/mL solution. Solutions are then dispatched into vials that are stored in a water bath at 37° C. and removed at the proper time point and diluted 40 times with CH3CN for LC/MS analysis. Before analysis, pH values of prepared sample solutions are checked and adjusted if necessary.
# [2] = tested on: Lung neutrophilia induced by bacterial lipopolysaccharide (LPS); experiment: Lung neutrophilia induced by bacterial lipopolysaccharide (LPS) in male BALB/cJ mice; type: in vivo; details: average; single dose 200 mg/kg i.p.; vs LPS challenged untreated animals
# Protocol: For intraperitoneal administration (i.p.) compounds are dissolved in a final concentration of 10 mg/mL. The required amount of compound is first dissolved in dimethylsulfoxide (DMSO, Sigma) and then diluted with 0.5% (w/v) methyl-cellulose so that the final DMSO concentration is 5% (v/v). The obtained solution is applied in a dose volume of 0.2 mL per 10 g of animal. Therefore, the compound dose is 200 mg/kg.
# Male BALB/cJ mice (Charles River, France), with an average weight of ˜30 g are randomly grouped (n=8 in testing group, 10 in positive control and 8 in negative control). Mice receive intraperitoneally (i.p.) a single dose of 200 mg/kg of test compound. Two hours after administration, 2 μg of LPS (from Escherichia coli serotype 0111:B4, Sigma), dissolved in sterile PBS in a volume of 60 μL, is intranasally administered to all experimental groups except the negative control group, which receive the same volume of vehicle (PBS). Animals are sacrificed approximately 24 hours after application of LPS in order to obtain bronchioalveolar lavage fluid (BALF), which is used to determine absolute number of cells and the percentage of neutrophils. Results are expressed as percentage decrease in total cell number and number of neutrophils in BALF of treated animals compared to positive control (LPS challenged, but untreated animals).
# [3] = tested on: Moraxella catarrhalis ATCC23246; experiment: Anti-bacterial screening, broth microdilution MIC; type: cell-based; details: read-out: minimal inhibitory concentration (MIC)
# Protocol: (§1) Whole-cell antimicrobial activity of compounds against clinically relevant bacteria (Staphylococcus aureus ATCC13709, Streptococcus pneumoniae ATCC49619, Streptococcus pyogenes ATCC700294, Moraxella catarrhalis ATCC23246, Haemophilus influenzae ATCC49247 and Escherichia coli ATCC25922) is determined by broth microdilution using the Clinical and Laboratory Standards (CLSI) recommended procedure (Document M7-[…], Methods for Dilution Susceptibility Tests for Bacteria that Grow Aerobically). Compounds are dissolved in DMSO to produce a 50 mM stock solution. The stock solution is diluted to a concentration of 128 μg/mL in appropriate media (Haemophilus Test Medium for Haemophilus influenzae, Mueller-Hinton Broth for Staphylococcus aureus, Moraxella catarrhalis and Escherichia coli, and Mueller-Hinton Broth supplemented with 5% horse serum for Streptococcus pyogenes and Streptococcus pneumoniae) to produce a working solution. A Tecan Genesis 150 Workstation (Tecan Group Ltd. Mannedorf, Switzerland) is used to prepare serial two-fold dilutions (50 μL aliquots) of the working solution in a U-shape bottom 96 well microtitre plate. After the compounds are diluted, a 50 μL aliquot of the test isolate ( 1×10^6 cfu/ml) is added to each well of the microtitre plate. The final test concentrations range from 0.125-64 μg/mL. Inoculated plates are incubated at 35° C. in ambient air for 18 to 24 hours. The minimum inhibitory concentration (MIC) is determined as the lowest concentration of compound that inhibited visible growth.
# [4] = tested on: Haemophilus influenzae ATCC49247; experiment: Anti-bacterial screening, broth microdilution MIC; type: cell-based; details: read-out: minimal inhibitory concentration (MIC)
# Protocol: as §1
# [5] = tested on: Staphylococcus aureus ATCC13709; experiment: Anti-bacterial screening, broth microdilution MIC; type: cell-based; details: read-out: minimal inhibitory concentration (MIC)
# Protocol: as §1
# [6] = tested on: Streptococcus pyogenes ATCC700294; experiment: Anti-bacterial screening, broth microdilution MIC; type: cell-based; details: read-out: minimal inhibitory concentration (MIC)
# Protocol: as §1
# [7] = tested on: Escherichia coli ATCC25922; experiment: Anti-bacterial screening, broth microdilution MIC; type: cell-based; details: read-out: minimal inhibitory concentration (MIC)
# Protocol: as §1
# [8] = tested on: Streptococcus pneumoniae ATCC49619; experiment: Anti-bacterial screening, broth microdilution MIC; type: cell-based; details: read-out: minimal inhibitory concentration (MIC)
# Protocol: as §1
smiles,measurement,setting,value
"CC[C@H]1OC(=O)[C@H](C)[C@@H](O[C@H]2C[C@@](C)(OC)[C@@H](OC(=O)CN(CC)CC)[C@H](C)O2)[C@H](C)[C@@H](O[C@@H]2O[C@H](C)C[C@H](N(C)C)[C@H]2O)[C@](C)(OC)C[C@@H](C)C(=O)N[C@H](C)[C@@H](O)[C@]1(C)O [Example 3, 4″-O-(2-diethylaminoethanoyl)-6-O-methyl-9a-aza-9a-homoerythromycin A]",Percentage (Area %) of the compound observed in Bio-relevant media,"[1]; Fasted SIF pH 6.5, 37° C., 1 h",99.2 Area %
same,Percentage (Area %) of the compound observed in Bio-relevant media,"[1]; Fasted SIF pH 6.5, 37° C., 2 h",98.7 Area %
same,Percentage (Area %) of the compound observed in Bio-relevant media,"[1]; Fasted SIF pH 6.5, 37° C., 3 h",98.3 Area %
same,Percentage (Area %) of the compound observed in Bio-relevant media,"[1]; Fasted SIF pH 6.5, 37° C., 4 h",97.8 Area %
same,Percentage (Area %) of the compound observed in Bio-relevant media,"[1]; Fasted SIF pH 6.5, 37° C., 5 h",97.6 Area %
same,Percentage (Area %) of the compound observed in Bio-relevant media,"[1]; Fasted SIF pH 6.5, 37° C., 24 h",95.1 Area %
same,Percentage (Area %) of the compound observed in Bio-relevant media,"[1]; Fasted SIF pH 6.5, 37° C., Initial",100 Area %
same,Percentage (Area %) of the compound observed in Bio-relevant media,"[1]; Fed SIF pH 5.0, 37° C., 1 h",100 Area %
same,Percentage (Area %) of the compound observed in Bio-relevant media,"[1]; Fed SIF pH 5.0, 37° C., 2 h",99.9 Area %
same,Percentage (Area %) of the compound observed in Bio-relevant media,"[1]; Fed SIF pH 5.0, 37° C., 3 h",100 Area %
same,Percentage (Area %) of the compound observed in Bio-relevant media,"[1]; Fed SIF pH 5.0, 37° C., 4 h",99.9 Area %
same,Percentage (Area %) of the compound observed in Bio-relevant media,"[1]; Fed SIF pH 5.0, 37° C., 5 h",99.8 Area %
same,Percentage (Area %) of the compound observed in Bio-relevant media,"[1]; Fed SIF pH 5.0, 37° C., 24 h",99.8 Area %
same,Percentage (Area %) of the compound observed in Bio-relevant media,"[1]; Fed SIF pH 5.0, 37° C., Initial",100 Area %
same,Percentage (Area %) of the compound observed in Bio-relevant media,"[1]; SGF pH 1.6, 37° C., 1 h",98.5 Area %
same,Percentage (Area %) of the compound observed in Bio-relevant media,"[1]; SGF pH 1.6, 37° C., 2 h",98.5 Area %
same,Percentage (Area %) of the compound observed in Bio-relevant media,"[1]; SGF pH 1.6, 37° C., 3 h",98.0 Area %
same,Percentage (Area %) of the compound observed in Bio-relevant media,"[1]; SGF pH 1.6, 37° C., 4 h",98.0 Area %
same,Percentage (Area %) of the compound observed in Bio-relevant media,"[1]; SGF pH 1.6, 37° C., 5 h",98.0 Area %
same,Percentage (Area %) of the compound observed in Bio-relevant media,"[1]; SGF pH 1.6, 37° C., 6 h",95.9 Area %
same,Percentage (Area %) of the compound observed in Bio-relevant media,"[1]; SGF pH 1.6, 37° C., 8 h",95.7 Area %
same,Percentage (Area %) of the compound observed in Bio-relevant media,"[1]; SGF pH 1.6, 37° C., 10 h",95.0 Area %
same,Percentage (Area %) of the compound observed in Bio-relevant media,"[1]; SGF pH 1.6, 37° C., 12 h",95.0 Area %
same,Percentage (Area %) of the compound observed in Bio-relevant media,"[1]; SGF pH 1.6, 37° C., 24 h",94.5 Area %
same,Percentage (Area %) of the compound observed in Bio-relevant media,"[1]; SGF pH 1.6, 37° C., Initial",100 Area %
same,stability in all three bio relevant media,"[1]; SGF pH 1.6, Fasted SIF pH 6.5, Fed SIF pH 5.0, 37° C., during 24 hours",Examples 1 and 3 showed stability in all three bio relevant media.
same,inhibition of the number of neutrophils in BALF,[2],more than 79%
same,MIC,[3],8 µg/mL
same,MIC,[4],> 64 µg/mL
same,MIC,[5],> 64 µg/mL
same,MIC,[6],> 64 µg/mL
same,MIC,[7],> 64 µg/mL
same,MIC,[8],8 µg/mL
